Tests used:
FGFR2 (N549H) = target: T1, FGFR2 (N549H) (Homo sapiens, UniProt P21802, N549H); test: FGFR2 kinase activity assay (fluorescent ELISA); format: biochemical
T1 construct: purchased Millipore 14-742
Method: The enzymatic assays described herein are conducted according to the following procedures from commercially available reagents. In one, non limiting, example, a fluorescent ELISA assay is used to identify and characterize inhibitors of FGFR2 kinase as described herein. This heterogeneous assay utilizes a biotinylated peptide with a tyrosine motif as a substrate and an anti-phospho-tyrosine antibody to measure phosphorylation of the substrate. The reaction is initiated by adding the test compound, 37 μM Pyk2 substrate (Midwest Biotech, Cat. # MBT2383), 12.5 μM ATP (Roche, Cat. #11 140 965 001) and 0.5 μM FGFR2 enzyme (Millipore, Cat. #14-742) sequentially to a non-binding polypropylene V-well plate. All reagents are in an assay buffer consisting of: 50 mM Tris-HCL, 0.02 mg/ml BSA, 10 mM MgCl2, 0.1 mM Na3VO4, 1 mM EGTA, 75 μM ATP, 0.01% NP-40, 2 mM DTT and 10% glycerol. The reaction is incubated for 60 minutes. As the reaction proceeds, FGFR2 phosphorylates tyrosines in the peptide. The reaction mixture is then moved to a blocked streptavidin-coated Nunc Maxisorb plate (coated with 100 ng streptavidin from Pierce (Cat. #15-124) per well), allowing for the capture of the biotinylated peptide. Peptides are captured for 30 minutes at room temperature, the phosphorylation of peptides continues during this phase. The reaction is stopped by washing the streptavidin-coated plate 6 times with TBST. Phosphorylated peptide is detected by adding anti-phospho-tyrosine antibody (Cell Signaling, Cat. #9411, diluted 1:3000) to the streptavidin-coated plate. Unbound anti-phospho-tyrosine antibody is removed by washing the streptavidin-coated plate 6 times with TBST. Secondary detection is performed using alkaline phosphatase tagged goat anti-mouse antibody (Pierce, Cat. #31320, diluted 1:4000) for one hour. Unbound secondary antibody is removed by washing the streptavidin-coated plate 6 times with TBST. The fluorescent readout is initiated by adding to the streptavidin-coated plate Promega Attophos substrate (Promega, Cat. # S1000, dilution=6 mg/10 ml), which, when dephosphorylated by alkaline phosphatase, emits a fluorescent signal of 595 nm in wavelength when excited by a signal of 400 nm in wavelength. The reading of the 595 nm signal is done on the Perkin Elmer Envision system. Compounds which prevent FGFR2 from phosphorylating the peptide result in a lower fluorescent signal. The 595 nm fluorescent signal is directly proportional to the activity of FGFR2. Thus, the inhibition of FGFR2 by compounds is monitored by the decrease in the 595 nm fluorescent signal.

DLD-1 = test: MTS assay, DLD-1; format: cell-based; conditions: Homo sapiens, DLD-1, 72 h
Method: (§1) Cells were maintained at 37° C., 5% CO2 in RPMI media supplemented with 1% fetal bovine serum, penicillin/streptomycin and fungizone (Invitrogen). Cells were seeded into 96-well tissue culture plates at 3000 per well and cultured at 37° C. for 18 h. Test compounds were dissolved and diluted to 300× in DMSO then diluted 1:40 in DMEM. Cells were incubated with test compounds for 72 hours followed by incubation with tetrazolium compound (3-(4,5-dimethylthiazol-2-yl)-5-(3-carboxymethoxyphenyl)-2-(4-sulfophenyl)-2H-tetrazolium, inner salt; MTS) and the electron coupling reagent, phenazine methosulfate (PMS) for 4 hours. […] The ability of compounds to inhibit cell growth in this assay is correlated with the reduction of dehydrogenase enzyme activity found in metabolically active cells. The measurement of the absorbance of the formazan was assessed using an ENVISION™ (Perkin Elmer) microplate reader at 492 nm. The calculated IC50 value is the concentration of the test compound that causes a 50% decrease in the absorbance.

MDA-MB-231 = test: MTS assay, MDA-MB-231; format: cell-based; conditions: Homo sapiens, MDA-MB-231, 72 h
Method: as §1

T1 sequence (P21802 22-821 N549H): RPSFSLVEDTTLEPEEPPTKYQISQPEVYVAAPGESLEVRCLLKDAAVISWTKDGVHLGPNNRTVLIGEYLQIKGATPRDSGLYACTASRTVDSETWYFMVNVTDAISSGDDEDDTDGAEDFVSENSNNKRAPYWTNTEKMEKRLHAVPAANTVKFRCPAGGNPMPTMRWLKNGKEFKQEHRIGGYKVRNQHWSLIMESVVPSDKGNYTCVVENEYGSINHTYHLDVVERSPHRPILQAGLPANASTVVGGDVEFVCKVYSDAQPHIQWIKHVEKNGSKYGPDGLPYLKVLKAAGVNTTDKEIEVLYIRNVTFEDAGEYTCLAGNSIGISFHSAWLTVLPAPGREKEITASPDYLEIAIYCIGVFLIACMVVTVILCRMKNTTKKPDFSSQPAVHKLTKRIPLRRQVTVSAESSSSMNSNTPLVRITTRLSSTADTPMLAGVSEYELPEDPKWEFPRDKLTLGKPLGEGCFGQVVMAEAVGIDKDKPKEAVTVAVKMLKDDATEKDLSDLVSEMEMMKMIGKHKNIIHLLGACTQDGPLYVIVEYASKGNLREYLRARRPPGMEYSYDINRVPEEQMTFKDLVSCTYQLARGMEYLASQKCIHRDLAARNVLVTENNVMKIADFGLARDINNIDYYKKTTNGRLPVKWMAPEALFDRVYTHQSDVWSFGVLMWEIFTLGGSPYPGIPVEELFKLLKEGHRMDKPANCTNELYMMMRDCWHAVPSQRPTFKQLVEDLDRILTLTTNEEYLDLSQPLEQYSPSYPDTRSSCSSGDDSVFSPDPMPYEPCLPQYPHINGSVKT

Row | SMILES | inhibition at 30 µM (FGFR2 (N549H)) [%] | inhibition at 10 µM (DLD-1) [%] | inhibition at 10 µM (MDA-MB-231) [%]
1 | CCOC(=O)CNC(=O)N1CCC(CNc2nccc(-c3cn4c5c(cccc35)CCC4)n2)CC1 [Compound 34, ethyl 2-(4-((4-(5,6-dihydro-4H-pyrrolo[3,2,1-ij]quinolin-1-yl)pyrimidin-2-ylamino)methyl)piperidine-1-carboxamido)acetate] | 60 | 65 | 
2 | O=S(=O)(c1ccc(Cl)cc1)N1CCC(CNc2nccc(-c3cn4c5c(cccc35)CCC4)n2)CC1 [Compound 35, N-((1-(4-chlorophenylsulfonyl)piperidin-4-yl)methyl)-4-(5,6-dihydro-4H-pyrrolo[3,2,1-ij]quinolin-1-yl)pyrimidin-2-amine] |  | 97 | 98
3 | CC(C)(C)C(=O)N1CCC(CNc2nccc(-c3cn4c5c(cccc35)CCC4)n2)CC1 [Compound 36, 1-(4-((4-(5,6-dihydro-4H-pyrrolo[3,2,1-ij]quinolin-1-yl)pyrimidin-2-ylamino)methyl)piperidin-1-yl)-2,2-dimethylpropan-1-one] |  | 85 | 
4 | c1cc2c3c(c1)c(-c1ccnc(N[C@H]4CCCNC4)n1)cn3CCC2 [Compound 37, (S)-4-(5,6-dihydro-4H-pyrrolo[3,2,1-ij]quinolin-1-yl)-N-(piperidin-3-yl)pyrimidin-2-amine] | 102 | 83 | 83
5 | COc1ccc(NC(=O)N2CCC(CNc3nccc(-c4cn5c6c(cccc46)CCC5)n3)CC2)cc1 [Compound 38, 4-((4-(5,6-dihydro-4H-pyrrolo[3,2,1-ij]quinolin-1-yl)pyrimidin-2-ylamino)methyl)-N-(4-methoxyphenyl)piperidine-1-carboxamide] | 79 | 97 | 98
6 | O=C(Nc1ccc(-c2ccccc2)cc1)N1CCC(CNc2nccc(-c3cn4c5c(cccc35)CCC4)n2)CC1 [Compound 39, N-(biphenyl-4-yl)-4-((4-(5,6-dihydro-4H-pyrrolo[3,2,1-ij]quinolin-1-yl)pyrimidin-2-ylamino)methyl)piperidine-1-carboxamide] | 71 | 52 | 31
7 | CCOC(=O)c1ccc(NC(=O)N2CCC(CNc3nccc(-c4cn5c6c(cccc46)CCC5)n3)CC2)cc1 [Compound 40, ethyl 4-(4-((4-(5,6-dihydro-4H-pyrrolo[3,2,1-ij]quinolin-1-yl)pyrimidin-2-ylamino)methyl)piperidine-1-carboxamido)benzoate] | 68 | 98 | 99
8 | CCOC(=O)NC(=O)N1CCC(CNc2nccc(-c3cn4c5c(cccc35)CCC4)n2)CC1 [Compound 41, ethyl 4-((4-(5,6-dihydro-4H-pyrrolo[3,2,1-ij]quinolin-1-yl)pyrimidin-2-ylamino)methyl)piperidine-1-carbonylcarbamate] | 68 |  | 33
9 | O=C(Nc1ccccc1)N1CCC(CNc2nccc(-c3cn4c5c(cccc35)CCC4)n2)CC1 [Compound 42, 4-((4-(5,6-dihydro-4H-pyrrolo[3,2,1-ij]quinolin-1-yl)pyrimidin-2-ylamino)methyl)-N-phenylpiperidine-1-carboxamide] | 66 | 97 | 79
10 | CCCNC(=O)N1CCC(CNc2nccc(-c3cn4c5c(cccc35)CCC4)n2)CC1 [Compound 43, 4-((4-(5,6-dihydro-4H-pyrrolo[3,2,1-ij]quinolin-1-yl)pyrimidin-2-ylamino)methyl)-N-propylpiperidine-1-carboxamide] | 65 | 86 | 43
11 | O=C(Nc1ccc(Cl)cc1)N1CCC(CNc2nccc(-c3cn4c5c(cccc35)CCC4)n2)CC1 [Compound 44, N-(4-chlorophenyl)-4-((4-(5,6-dihydro-4H-pyrrolo[3,2,1-ij]quinolin-1-yl)pyrimidin-2-ylamino)methyl)piperidine-1-carboxamide] | 65 | 97 | 84
12 | Cc1ccc(NC(=O)N2CCC(CNc3nccc(-c4cn5c6c(cccc46)CCC5)n3)CC2)cc1 [Compound 45, 4-((4-(5,6-dihydro-4H-pyrrolo[3,2,1-ij]quinolin-1-yl)pyrimidin-2-ylamino)methyl)-N-p-tolylpiperidine-1-carboxamide] | 64 | 94 | 72
13 | CC(C)NC(=O)N1CCC(CNc2nccc(-c3cn4c5c(cccc35)CCC4)n2)CC1 [Compound 46, 4-((4-(5,6-dihydro-4H pyrrolo[3,2,1-ij]quinolin-1-yl)pyrimidin-2-ylamino)methyl)-N-isopropylpiperidine-1-carboxamide] | 61 | 52 | 
14 | O=C(NCc1ccccc1)N1CCC(CNc2nccc(-c3cn4c5c(cccc35)CCC4)n2)CC1 [Compound 47, N-benzyl-4-((4-(5,6-dihydro-4H-pyrrolo[3,2,1-ij]quinolin-1-yl)pyrimidin-2-ylamino)methyl)piperidine-1-carboxamide] | 60 | 98 | 97
15 | CS(=O)(=O)N1CCC(CNc2nccc(-c3cn4c5c(cccc35)CCC4)n2)CC1 [Compound 48, 4-(5,6-dihydro-4H-pyrrolo[3,2,1-ij]quinolin-1-yl)-N-((1-(methylsulfonyl)piperidin-4-yl)methyl)pyrimidin-2-amine] | 59 |  | 
16 | O=C(Nc1cccc(Cl)c1)N1CCC(CNc2nccc(-c3cn4c5c(cccc35)CCC4)n2)CC1 [Compound 49, N-(3-chlorophenyl)-4-((4-(5,6-dihydro-4H-pyrrolo[3,2,1-ij]quinolin-1-yl)pyrimidin-2-ylamino)methyl)piperidine-1-carboxamide] | 58 | 96 | 85
17 | CC(C)(C)NC(=O)N1CCC(CNc2nccc(-c3cn4c5c(cccc35)CCC4)n2)CC1 [Compound 52, N-tert-butyl-4-((4-(5,6-dihydro-4H-pyrrolo[3,2,1-ij]quinolin-1-yl)pyrimidin-2-ylamino)methyl)piperidine-1-carboxamide] | 51 | 55 | 
18 | Cc1nnc(-c2cn3c4c(cccc24)CCC3)o1 [Compound 56, 1-(5-methyl-1,3,4-oxadiazol-2-yl)-5,6-dihydro-4H-pyrrolo[3,2,1-ij]quinoline] |  | 94 | 77
19 | Clc1ccc(-c2nnc(-c3cn4c5c(cccc35)CCC4)o2)cc1 [Compound 63, 1-[5-(4-chlorophenyl)-1,3,4-oxadiazol-2-yl]-5,6-dihydro-4H-pyrrolo[3,2,1-ij]quinoline] |  | 98 | 100
20 | c1cc2c3c(c1)c(-c1nnnn1CC1CCNCC1)cn3CCC2 [Compound 81, 1-[1-(piperidin-4-ylmethyl)-1H-tetrazol-5-yl]-5,6-dihydro-4H-pyrrolo[3,2,1-ij]quinoline] | 91 |  | 
21 | NC1CCC(n2nnnc2-c2cn3c4c(cccc24)CCC3)CC1 (stereo not shown) [Compound 82, 4-[5-(5,6-dihydro-4H-pyrrolo[3,2,1-ij]quinolin-1-yl)-1H-tetrazol-1-yl]cyclohexanamine] | 91 |  | 
22 | c1cc2c3c(c1)c(-c1nnnn1C1CCCNC1)cn3CCC2 (stereo not shown) [Compound 83, 1-(1-piperidin-3-yl-1H-tetrazol-5-yl)-5,6-dihydro-4H-pyrrolo[3,2,1-ij]quinoline] | 84 |  | 
